Four molecules from patent US20100273816A1, “Quinazoline Compounds” (priority 2007, published 2010) can be followed below.

In one assay the target is T1, human LXRβ (Homo sapiens, UniProt P55055).
T1 construct: biotin (biotinylated); made in house; host or cells: E. coli (crude extract)
T1 sequence (P55055 1-460): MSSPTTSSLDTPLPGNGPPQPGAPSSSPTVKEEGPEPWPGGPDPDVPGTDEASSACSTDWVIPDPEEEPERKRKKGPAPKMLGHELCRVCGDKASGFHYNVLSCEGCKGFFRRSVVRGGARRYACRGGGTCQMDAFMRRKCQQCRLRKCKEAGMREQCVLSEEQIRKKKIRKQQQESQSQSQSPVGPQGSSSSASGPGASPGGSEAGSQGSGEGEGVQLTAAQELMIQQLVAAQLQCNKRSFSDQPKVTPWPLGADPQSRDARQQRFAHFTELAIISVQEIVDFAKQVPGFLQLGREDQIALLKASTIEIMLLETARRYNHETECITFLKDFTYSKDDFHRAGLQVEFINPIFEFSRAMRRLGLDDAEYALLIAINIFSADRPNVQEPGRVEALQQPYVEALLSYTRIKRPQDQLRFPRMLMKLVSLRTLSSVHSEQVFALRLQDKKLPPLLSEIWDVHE
The experiment in a line: Ligand-binding test procedure for human LXRβ (3H T0901317 tracer, flash plates). Particulars: biotinylated hLXRβ from E. coli extract, +4° C. over night, read-out: hLXRB binding assay Mean IC50. How it is done:
I. Ligand-Binding Test Procedure for Human LXRβ.
(§1) Buffer: 100 mM KCl, 100 mM TRIS (pH 7.4 at +4° C.), 8.6% glycerol, 0.1 mM PMSF*, 2 mM MTG*, 0.2% CHAPS (* not used in wash buffer)
Receptor source: E. coli extract from cells expressing biotinylated hLXRβ. Extract was made in a similar buffer as above, but with 50 mM TRIS.
(§2) Washed streptavidin and coated flash plates with wash buffer.
(§3) Diluted receptor extract to give Bmax ˜4000 cpm and add to the wells.
(§4) Wrapped the plates in aluminum foil and stored them at +4° C. over night.
(§5) Made a dilution series in DMSO of the test ligands.
(§6) Made a 5 nM solution of the radioactive tracer in buffer.
Mixed 250 μl diluted tracer with 50 of the test ligand from each concentration of the dilution series.
(§7) Washed the receptor-coated flash plates.
(§8) Added 200 μl per well of the ligand/radiolabel mixture to the receptor-coated flash plates.
(§9) Wrapped the plates in aluminum foil and incubate at +4° C. over night.
(§10) Aspirated wells, and wash the flashed plates. Sealed the plate.
(§11) Measured the remaining radioactivity in the plate.

The next assay addresses T2, human LXRα (Homo sapiens, UniProt Q13133).
T2 construct: biotin (biotinylated); made in house; host or cells: E. coli (crude extract)
T2 sequence (Q13133 1-447): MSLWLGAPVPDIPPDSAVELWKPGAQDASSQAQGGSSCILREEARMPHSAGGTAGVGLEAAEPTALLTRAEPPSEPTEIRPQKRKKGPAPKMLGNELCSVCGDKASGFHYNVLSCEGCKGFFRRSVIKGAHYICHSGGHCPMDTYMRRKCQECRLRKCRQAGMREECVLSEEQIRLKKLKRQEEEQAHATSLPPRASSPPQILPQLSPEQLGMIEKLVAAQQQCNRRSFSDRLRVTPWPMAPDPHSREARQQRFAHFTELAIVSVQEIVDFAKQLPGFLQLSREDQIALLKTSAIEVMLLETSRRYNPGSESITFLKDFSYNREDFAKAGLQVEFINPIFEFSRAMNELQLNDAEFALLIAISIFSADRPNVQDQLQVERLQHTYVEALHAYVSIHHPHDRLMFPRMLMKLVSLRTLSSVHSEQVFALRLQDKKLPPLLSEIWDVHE
The experiment in a line: Ligand-binding test procedure for human LXRα (3H T0901317 tracer, flash plates). Particulars: biotinylated hLXRα from E. coli extract, +4° C. over night, read-out: hLXRa binding assay Mean IC50. The procedure:
II. Ligand-Binding Test Procedure for Human LXRα.
as §1
Receptor source: E. coli extract from cells expressing biotinylated hLXRα. Extract was made in a similar buffer as above, but with 50 mM TRIS.
as §2, §3, §4, §5, §6
Mixed 250 μl diluted tracer with 5 μl of the test ligand from each concentration of the dilution series.
as §7, §8, §9, §10, §11

Broadly, the IC50 is the concentration at which inhibition is half-maximal. As for `CC(C)S(=O)(=O)c1cccc(Oc2ccc(Cl)c(-c3ncnc4c(C(F)(F)F)cccc34)c2)c1` [Example 51, 4-{2-chloro-5-[3-(isopropylsulfonyl)phenoxy]phenyl}-8-(trifluoromethyl)quinazoline], the IC50 is 2 nM at human LXRβ and 119 nM on human LXRα.
Consider `O=S(=O)(CCCO)c1ccc(Oc2cccc(-c3ncnc4c(C(F)(F)F)cccc34)c2)cc1` [Example 19, 3-[(4-{3-[8-(trifluoromethyl)quinazolin-4-yl]phenoxy}phenyl)sulfonyl]propan-1-ol], for which the half-inhibitory concentration (IC50) at human LXRβ amounted to 19100 nM; at human LXRα, 64800 nM.
On the same counts, the results for `COc1cccc2c(-c3cc(Oc4cccc(S(C)(=O)=O)c4)ccc3Cl)ncnc12` [Example 77, 4-{2-chloro-5-[3-(methylsulfonyl)phenoxy]phenyl}-8-methoxyquinazoline] are 344 nM and 10400 nM.
Consider `O=S(=O)(CCCO)c1cccc(Oc2cccc(-c3ncnc4c(C(F)(F)F)cccc34)c2)c1` [Example 18, 3-[(3-{3-[8-(trifluoromethyl)quinazolin-4-yl]phenoxy}phenyl)sulfonyl]propan-1-ol], for which the IC50 on human LXRβ came out at 412 nM; at human LXRα, 3540 nM.
